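The compound was tested at five concentrations on cells cultured in 96-well plates, with a 48-hour exposure period. Here, GI50 denotes the concentration required for 50% inhibition of growth.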 Active and inactive are the calls of the source. Rule as the data show it: active = GI50 up to about 1.1 µM and inactive = higher.
What was measured:
Assay in all cases: NCI-60 cell line screen, 48 h
MDA-MB-435 = test system: MDA-MB-435
OVCAR-3 = test system: OVCAR-3
SF-539 = test system: SF-539
PC-3 = test system: PC-3
UACC-257 = test system: UACC-257
HCT-116 = test system: HCT-116
CCRF-CEM = test system: CCRF-CEM
SR = test system: SR
HCC 2998 = test system: HCC 2998
A549 = test system: A549
RXF 393 = test system: RXF 393
TK-10 = test system: TK-10
NCI-H226 = test system: NCI-H226
HOP-62 = test system: HOP-62
SK-MEL-28 = test system: SK-MEL-28
NCI-H522 = test system: NCI-H522
OVCAR-8 = test system: OVCAR-8
SW-620 = test system: SW-620
MCF7 = test system: MCF7
K562 = test system: K562
DU-145 = test system: DU-145
OVCAR-5 = test system: OVCAR-5
SK-MEL-2 = test system: SK-MEL-2
ACHN = test system: ACHN
EKVX = test system: EKVX
A498 = test system: A498
U-251 = test system: U-251
CAKI-1 = test system: CAKI-1
MOLT-4 = test system: MOLT-4
SNB-75 = test system: SNB-75
MDA-MB-231 = test system: MDA-MB-231
SF-295 = test system: SF-295
RPMI-8226 = test system: RPMI-8226
HCT-15 = test system: HCT-15
SF-268 = test system: SF-268
LOX IMVI = test system: LOX IMVI
UO-31 = test system: UO-31
HL-60 = test system: HL-60
BT-549 = test system: BT-549
NCI/ADR-RES = test system: NCI/ADR-RES
OVCAR-4 = test system: OVCAR-4
Hs-578T = test system: Hs-578T
HOP-92 = test system: HOP-92
NCI-H460 = test system: NCI-H460
786-0 = test system: 786-0
HT-29 = test system: HT-29
COLO 205 = test system: COLO 205
IGROV-1 = test system: IGROV-1
Malme-3M = test system: Malme-3M
SN12C = test system: SN12C
SK-MEL-5 = test system: SK-MEL-5
KM12 = test system: KM12
NCI-H23 = test system: NCI-H23

O=C1C2=Nc3ccccc3C(O)(C(=O)O)N2c2ccccc21 (stereo not drawn)
GI50 (MDA-MB-435): 2.26 µM (inactive)
GI50 (OVCAR-3): 14 µM (inactive)
GI50 (SF-539): 26.4 µM (inactive)
GI50 (PC-3): 6.61 µM (inactive)
GI50 (UACC-257): 10.7 µM (inactive)
GI50 (HCT-116): 20 µM (inactive)
GI50 (CCRF-CEM): 21.9 µM (inactive)
GI50 (SR): 14.6 µM (inactive)
GI50 (HCC 2998): 45.2 µM (inactive)
GI50 (A549): 7.66 µM (inactive)
GI50 (RXF 393): 40 µM (inactive)
GI50 (TK-10): 81.7 µM (inactive)
GI50 (NCI-H226): > 100 µM (inactive)
GI50 (HOP-62): 25.4 µM (inactive)
GI50 (SK-MEL-28): 43.9 µM (inactive)
GI50 (NCI-H522): 17.6 µM (inactive)
GI50 (OVCAR-8): 17.5 µM (inactive)
GI50 (SW-620): 19.4 µM (inactive)
GI50 (MCF7): 19.9 µM (inactive)
GI50 (K562): 20.8 µM (inactive)
GI50 (DU-145): 16.3 µM (inactive)
GI50 (OVCAR-5): 34.8 µM (inactive)
GI50 (SK-MEL-2): 13.3 µM (inactive)
GI50 (ACHN): 26.5 µM (inactive)
GI50 (EKVX): 60.7 µM (inactive)
GI50 (A498): 29.5 µM (inactive)
GI50 (U-251): 19.9 µM (inactive)
GI50 (CAKI-1): 14.3 µM (inactive)
GI50 (MOLT-4): 17.6 µM (inactive)
GI50 (SNB-75): 27.2 µM (inactive)
GI50 (MDA-MB-231): 17.2 µM (inactive)
GI50 (SF-295): 17.2 µM (inactive)
GI50 (RPMI-8226): 6.68 µM (inactive)
GI50 (HCT-15): 15.2 µM
GI50 (SF-268): 18.2 µM (inactive)
GI50 (LOX IMVI): 20.1 µM (inactive)
GI50 (UO-31): 12.5 µM (inactive)
GI50 (HL-60): 10.7 µM (inactive)
GI50 (BT-549): > 10 µM (inactive)
GI50 (NCI/ADR-RES): 29.6 µM (inactive)
GI50 (OVCAR-4): 14.3 µM (inactive)
GI50 (Hs-578T): 27.7 µM (inactive)
GI50 (HOP-92): 32.7 µM (inactive)
GI50 (NCI-H460): 12.2 µM (inactive)
GI50 (786-0): 36.5 µM (inactive)
GI50 (HT-29): 21.2 µM (inactive)
GI50 (COLO 205): 16.4 µM (inactive)
GI50 (IGROV-1): 37.7 µM (inactive)
GI50 (Malme-3M): 15 µM (inactive)
GI50 (SN12C): 28.8 µM (inactive)
GI50 (SK-MEL-5): 14 µM (inactive)
GI50 (KM12): 26.9 µM (inactive)
GI50 (NCI-H23): 24.1 µM (inactive)
